Results reported in doi:10.1101/2020.04.06.027102v2 (biorxiv, 2020).

How the values were obtained:
Test in all cases: UV-visible dark absorbance spectrum of purified reconstituted rhodopsin
Format in all cases: binding
[1] = biological target: T1, Eumaeus atala LWRh (LW opsin) (Eumaeus atala, UniProt A0A7T3U8W4); conditions: covalent, 40 uM 11-cis-retinal, figure legend prints 567 nm
T1 sequence (A0A7T3U8W4 1-381): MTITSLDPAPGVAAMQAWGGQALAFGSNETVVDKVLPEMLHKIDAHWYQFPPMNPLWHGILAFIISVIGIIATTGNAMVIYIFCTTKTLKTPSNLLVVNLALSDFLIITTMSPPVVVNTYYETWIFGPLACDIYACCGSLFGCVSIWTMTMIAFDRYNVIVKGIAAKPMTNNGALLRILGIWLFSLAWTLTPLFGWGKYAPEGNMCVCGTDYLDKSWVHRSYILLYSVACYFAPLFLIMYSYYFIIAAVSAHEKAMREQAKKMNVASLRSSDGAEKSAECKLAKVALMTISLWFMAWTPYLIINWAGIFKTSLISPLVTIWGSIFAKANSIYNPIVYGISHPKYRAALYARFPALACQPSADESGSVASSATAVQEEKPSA

Eumaeus atala UVRh = biological target: T2, Eumaeus atala UVRh (Eumaeus atala, UniProt A0A7T3U8H7); conditions: covalent, 40 uM 11-cis-retinal
T2 sequence (A0A7T3U8H7 1-406): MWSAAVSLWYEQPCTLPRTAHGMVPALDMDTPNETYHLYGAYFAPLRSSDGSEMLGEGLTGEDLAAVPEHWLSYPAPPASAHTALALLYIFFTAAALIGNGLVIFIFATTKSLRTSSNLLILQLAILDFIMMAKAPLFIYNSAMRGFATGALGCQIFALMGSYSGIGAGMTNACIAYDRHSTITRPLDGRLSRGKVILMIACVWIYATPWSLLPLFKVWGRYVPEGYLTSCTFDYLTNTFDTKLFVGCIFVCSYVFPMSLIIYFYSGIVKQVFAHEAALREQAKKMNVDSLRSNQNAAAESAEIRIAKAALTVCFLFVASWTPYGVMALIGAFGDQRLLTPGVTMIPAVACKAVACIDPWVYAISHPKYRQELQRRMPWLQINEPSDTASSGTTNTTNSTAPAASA

Eat-BRh2 (BRh2, Eat-B2) = biological target: T3, Eat-BRh2 (BRh2, Eat-B2) (Eumaeus atala, UniProt A0A7T3U8M8); conditions: covalent, 40 uM 11-cis-retinal
T3 sequence (A0A7T3U8M8 1-380): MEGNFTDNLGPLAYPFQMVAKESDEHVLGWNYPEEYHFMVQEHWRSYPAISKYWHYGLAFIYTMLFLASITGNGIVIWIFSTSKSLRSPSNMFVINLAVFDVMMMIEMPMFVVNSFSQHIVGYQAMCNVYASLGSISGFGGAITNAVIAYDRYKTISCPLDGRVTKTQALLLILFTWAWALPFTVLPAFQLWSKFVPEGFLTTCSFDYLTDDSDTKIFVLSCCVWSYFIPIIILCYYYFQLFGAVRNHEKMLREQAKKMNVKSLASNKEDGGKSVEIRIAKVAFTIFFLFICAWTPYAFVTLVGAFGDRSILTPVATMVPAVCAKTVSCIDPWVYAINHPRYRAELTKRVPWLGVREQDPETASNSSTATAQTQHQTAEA

Eat-BRh1 (BRh1, Eat-B1) = biological target: T4, Eat-BRh1 (BRh1, Eat-B1) (Eumaeus atala, UniProt A0A7T3U8I9); conditions: covalent, 40 uM 11-cis-retinal
T4 sequence (A0A7T3U8I9 1-380): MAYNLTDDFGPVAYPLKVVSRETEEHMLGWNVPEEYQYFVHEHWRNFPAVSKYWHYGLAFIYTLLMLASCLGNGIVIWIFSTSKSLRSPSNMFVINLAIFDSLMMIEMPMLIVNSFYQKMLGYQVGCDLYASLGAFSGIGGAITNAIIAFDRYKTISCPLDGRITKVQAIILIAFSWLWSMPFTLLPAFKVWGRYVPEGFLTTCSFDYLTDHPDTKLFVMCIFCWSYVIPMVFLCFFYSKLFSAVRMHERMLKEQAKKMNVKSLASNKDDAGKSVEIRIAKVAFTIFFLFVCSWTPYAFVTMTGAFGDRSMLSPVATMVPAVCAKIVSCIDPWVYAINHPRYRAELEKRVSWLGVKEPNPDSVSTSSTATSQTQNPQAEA

CC1=C(/C=C/C(C)=C/C=C\C(C)=C\C=O)C(C)(C)CCC1 [11-cis-retinal]
λmax [1]: 569 ± 2 nm
λmax (Eumaeus atala UVRh): 352 ± 3.5 nm
λmax (Eat-BRh2 (BRh2, Eat-B2)): 500 ± 2 nm
λmax (Eat-BRh1 (BRh1, Eat-B1)): 435 ± 2 nm
